≈ marks a conversion by molar mass, not a printed value.
Tests used:
[1] = Aqueous solubility of compound at pH 7.4; assay type: physicochemical
[2] = system: Mycobacterium tuberculosis; assay type: functional; settings: H37Rv, 168 h, time 7 day
[3] = system: CHO; assay: Cytotoxicity against CHO cells assessed as reduction in cell viability by MTT assay; assay type: cell-based; settings: Cricetulus griseus
[4] = Metabolic stability in mouse liver microsomes assessed as parent compound remaining after 30 mins; assay type: ADME, Microsome; settings: 0.5 h
[5] = Metabolic stability in human liver microsomes assessed as parent compound remaining after 30 mins; assay type: ADME, Microsome; settings: 0.5 h
[6] = Protein binding in human plasma assessed as unbound fraction at 5 uM incubated for 1 hr at 37 degreeC and measured after 4 hrs by ultracentrifugation based LC-MS/MS analysis; assay type: ADME, cell-free; settings: 5 h
[7] = Metabolic stability in rat liver microsomes assessed as parent compound remaining after 30 mins; assay type: ADME, Microsome; settings: 0.5 h
[8] = Kinetic solubility of compound at 200 uM at pH 7.4 measured after 20 hrs by HPLC-DAD analysis; assay type: physicochemical; settings: buffer, pH 7.4, 20 h
[9] = system: Vero; assay: Cytotoxicity against African green monkey Vero cells assessed as reduction in cell viability by MTT assay; assay type: cell-based; settings: Chlorocebus sabaeus

SMILES	solubility ([1]; buffer)	MIC [2]	IC50 [3]	solubility ([1]; aqueous, read-out: solubility)	also measured
Cc1cc(C)n(-c2nc(-c3ccc(NS(C)(=O)=O)cc3)cc(=O)[nH]2)n1	20 µM (≈ 7.19 µg/mL)	> 125 µM	> 50 µM	–	–
Cc1cc(=O)n(-c2nc(-c3ccccc3)cc(=O)[nH]2)[nH]1	–	> 125 µM	–	190 µM (≈ 51 µg/mL)	–
Cc1cc(-c2ccccc2)n(-c2nc(C(F)(F)F)cc(=O)[nH]2)n1	–	25 µM (≈ 8.01 µg/mL)	> 50 µM	200 µM (≈ 64.1 µg/mL)	–
Cc1nn(-c2nc(C(F)(F)F)cc(=O)[nH]2)c(C)c1-c1cccnc1	195 µM (≈ 65.4 µg/mL)	> 50 µM	–	–	–
Cc1cc(C)n(-c2nc(C(=O)Nc3ccc(F)cc3)cc(=O)[nH]2)n1	–	25 µM (≈ 8.18 µg/mL)	> 50 µM	200 µM (≈ 65.5 µg/mL)	–
Cc1cc(C)n(-c2cc(=O)cc(-c3ccccc3)[nH]2)n1	120 µM (≈ 31.8 µg/mL)	> 50 µM	> 50 µM	–	–
Cc1cc(C)n(-c2nc(-c3ccc(F)cc3)c(C(=O)O)c(=O)[nH]2)n1	190 µM (≈ 62.4 µg/mL)	> 50 µM	> 50 µM	–	–
Cc1cc(C(=O)N(C)C)nn1-c1nc(-c2ccc(F)cc2)cc(=O)[nH]1	65 µM (≈ 22.2 µg/mL)	> 50 µM	–	–	–
Cc1cc(NC2CCOCC2)n(-c2nc(C(F)(F)F)cc(=O)[nH]2)n1	50 µM (≈ 17.2 µg/mL)	1.56 µM (≈ 0.536 µg/mL)	18 µM	–	Stabilty [4]: 93%; Stabilty [5]: > 99%; Fu [6]: 0.014; Stabilty [7]: > 99%; Kinetic_solubility [8]: 50 µM
Cc1cc(C)n(-c2nc(-c3ccc(N4CCOCC4)cc3)cc(=O)[nH]2)n1	40 µM (≈ 14.1 µg/mL)	> 125 µM	–	–	–
Cc1nc(C)n(-c2nc(-c3ccccc3)cc(=O)[nH]2)n1	130 µM (≈ 34.7 µg/mL)	> 125 µM	> 50 µM	–	–
Cc1cc(C)n(-c2nc(-c3ccc(F)cc3)c(C(N)=O)c(=O)[nH]2)n1	110 µM (≈ 36 µg/mL)	> 50 µM	–	–	–
Cc1cc(C)n(-c2nc3ccccc3c(=O)[nH]2)n1	150 µM (≈ 36 µg/mL)	3 µM (≈ 0.721 µg/mL)	6 µM	–	–
Cc1cc(C)n(-c2cc(-c3ccccc3)nc(=O)[nH]2)n1	30 µM (≈ 7.99 µg/mL)	2 µM (≈ 0.533 µg/mL)	10 µM	–	–
Cc1cc(C2CC2)n(-c2nc(C(F)(F)F)cc(=O)[nH]2)n1	160 µM (≈ 45.5 µg/mL)	12 µM (≈ 3.41 µg/mL)	78 µM	–	–
Cc1nn(-c2nc(C(F)(F)F)cc(=O)[nH]2)c(C)c1Br	–	25 µM (≈ 8.43 µg/mL)	> 50 µM	200 µM (≈ 67.4 µg/mL)	–
Cc1cc(C)n(-c2nc(-c3cccnc3)cc(=O)[nH]2)n1	–	50 µM (≈ 13.4 µg/mL)	> 50 µM	200 µM (≈ 53.5 µg/mL)	–
CCNc1cc(C)nn1-c1nc(C(F)(F)F)cc(=O)[nH]1	85 µM (≈ 24.4 µg/mL)	6.25 µM (≈ 1.8 µg/mL)	8 µM	–	–
Cn1ccnc1-c1nc(-c2ccccc2)cc(=O)[nH]1	–	20 µM (≈ 5.05 µg/mL)	4 µM	200 µM (≈ 50.5 µg/mL)	–
Cc1cc(CN(C)C)nn1-c1nc(C(F)(F)F)cc(=O)[nH]1	–	> 50 µM	–	200 µM (≈ 60.3 µg/mL)	–
Cc1cc(Nc2ccc(C#N)cc2)n(-c2nc(C(F)(F)F)cc(=O)[nH]2)n1	75 µM (≈ 27 µg/mL)	9.4 µM (≈ 3.39 µg/mL)	20 µM	–	–
Cc1cc(Nc2ccc(F)cc2F)n(-c2nc(C(F)(F)F)cc(=O)[nH]2)n1	–	0.3 µM (≈ 0.111 µg/mL)	8 µM	< 5 µM	–
Cc1cc(C)n(-c2nc(-c3ccccc3)cc(=O)n2C)n1	–	> 50 µM	–	200 µM (≈ 56.1 µg/mL)	IC50 [9]: 357 µM
Cc1cc(NCCN(C)C)n(-c2nc(C(F)(F)F)cc(=O)[nH]2)n1	–	58 µM (≈ 19.2 µg/mL)	–	200 µM (≈ 66.1 µg/mL)	–
Cc1nn(-c2nc(C(F)(F)F)cc(=O)[nH]2)c(C)c1N1CCOCC1	160 µM (≈ 54.9 µg/mL)	6.25 µM (≈ 2.15 µg/mL)	> 50 µM	–	Fu [6]: 0.03; Kinetic_solubility [8]: 160 µM

Source: ChEMBL document CHEMBL4706648, “Antitubercular 2-Pyrazolylpyrimidinones: Structure-Activity Relationship and Mode-of-Action Studies” (J Med Chem, 2021)
